Assay results: patent US8349850B2, “Heterocyclic compounds and uses thereof in the treatment of sexual disorders” (ATIR Holding S.A., priority 2006, dated 2013)

Key:
[1] = biological target: T1, Human recombinant dopamine D4.4 receptors expressed in CHO-K1 cells (Homo sapiens, UniProt P21917); assay: GTPgammaS Cellular Assay (agonist response); type: biochemical; details: relative to the 1 μM dopamine response; tested at 5, 1, 0.1, 0.01 μM (concentration of tabulated value not given); na = no activity; read-out: D4.4(h) GTPgammaS^35 Cellular Assay, Agonist Response, %
T1 construct: expressed in transfected cells; host or cells: CHO-K1 cells (membranes)
T1 sequence (P21917 1-419): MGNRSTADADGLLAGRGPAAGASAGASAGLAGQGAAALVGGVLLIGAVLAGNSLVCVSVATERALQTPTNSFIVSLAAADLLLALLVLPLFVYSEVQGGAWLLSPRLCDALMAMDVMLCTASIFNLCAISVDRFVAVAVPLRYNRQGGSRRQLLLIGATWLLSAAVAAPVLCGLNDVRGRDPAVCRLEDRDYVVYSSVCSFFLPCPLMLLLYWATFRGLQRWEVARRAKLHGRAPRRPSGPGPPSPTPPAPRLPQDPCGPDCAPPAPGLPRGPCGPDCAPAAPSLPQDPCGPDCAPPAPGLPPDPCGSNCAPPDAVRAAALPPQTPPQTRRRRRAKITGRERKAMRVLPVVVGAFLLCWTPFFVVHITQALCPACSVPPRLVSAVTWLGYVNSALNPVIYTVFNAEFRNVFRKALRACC
Experimental: Human recombinant dopamine D4.4 receptors expressed in CHO-K1 cells were used. The tested compound was pre-incubated with 0.1 mg/ml membranes and 10 μM GDP for 20 minutes at 25° C. in modified HEPES buffer (pH 7.4). SPA beads were then added and the mixture was maintained for additional 60 minutes at 30° C. The reaction was initiated by the addition of 0.3 nM [^35S]GTPγS, and the obtained reaction mixture were incubated for 30 minutes. Test compound-induced increase of [^35S]GTPγS binding by 50 percent or more (≧50%) relative to the 1 μM dopamine response indicated dopamine D4.4 agonist activity. Test compound-induced inhibition of 1 μM dopamine-induced increase of [^35S]GTPγS binding response by 50 percent or more (≧50%) indicated receptor antagonist activity. Compounds were tested at concentrations of 5, 1, 0.1, 0.01 μM.

D4.4 receptor = biological target: T2, D4.4 receptor (Homo sapiens, UniProt P21917); assay: Competitive binding to D4.4 dopamine receptor ([3H]-YM-09151-2 radioligand); details: 5 mcM compound; human recombinant D4.4 in CHO cells; na = no activity
T2 construct: expressed in transfected cells; host or cells: CHO cells
T2 sequence (P21917 1-419): T1 sequence (P21917 1-419)
Experimental: (§1) Compounds were assayed for competitive binding to D2 SHORT and D4.4 type dopamine receptors. Both receptor types are expressed as human recombinant proteins in CHO cells, as described, for example, in Jarvis et al. (1973); Van Tol et al. (1991) and Van Tol et al. (1992).
(§2) Determination of binding to D4.4 receptor was performed using [^3H]-YM-09151-2 (70-87 Ci/mmol, 0.3 nM), as a radioligand, in with the presence of various concentrations of the tested compound. Reactions were carried out in 50 mM TRIS-HCl (pH 7.4) containing 5 mM MgCl2, 5 mM EDTA, 5 mM KCl and 1.5 mM CaCl2, for 60 minutes at 22° C. The reaction was terminated by rapid vacuum filtration onto glass fiber filters. Radioactivity trapped onto the filters was determined (counted) and compared to control values in order to accurately evaluate any interaction of the tested compound(s) with the cloned dopamine D4.4 binding site.

[2] = test system: D2 SHORT and D4.4 type dopamine receptors; assay: D4/D2 binding ratio from competitive binding to D4.4 and D2 short receptors; set-up: species or system human; details: ratio of concentrations required to inhibit 50% of radioligand binding for each receptor
Experimental: as §1
Determination of binding to D2 short receptor was performed using [^3H]-spiperone, a D2 receptor ligand (Gundlach et al., 1984), as a radioligand (20-60 Ci/mmol, 0.2 nM) in the presence of various concentrations of the tested compound. Reactions were carried out in 50 mM TRIS-HCl (pH 7.4) containing 120 mM NaCl, 5 mM KCl, 5 mM MgCl2 and 1 mM EDTA, for 60 minutes at 25° C. The reaction was terminated by rapid vacuum filtration onto glass fiber filters. Radioactivity trapped onto the filters was determined (counted) and compared to control values in order to accurately evaluate any interaction of the test compound(s) with the cloned dopamine D2 short binding site.
as §2
D4/D2 binding ratios were determined based on the ratio of the concentration of each tested compound required to inhibit 50% of the radioligand binding for each receptor.

[3] = biological target: T3, PDE5 partially purified from human platelets (Homo sapiens, UniProt O76074); assay: Phosphodiesterase Type 5 (PDE5) Inhibition; type: biochemical; details: for IC50 / PDE5 IC50, 10^−6 M: 'active' = observed activity not quantitated; for IC50: read-out: PDE5 IC50, 10^−6 M
T3 construct: PDE5 partially purified from human platelets was used; from tissue; host or cells: human platelets
Experimental: Phosphodiesterase type 5 (PDE5) catalyzes the conversion of cAMP or cGMP to their respective monophosphate forms. PDE5 has a high Km for cAMP and a low Km for cGMP, is insensitive to Ca^2+/calmodulin or cGMP regulation, and is relatively sensitive to inhibitors such as dipyridamol and zaprinast.
PDE5 partially purified from human platelets was used. The tested compound (at a concentration of 0.1, 1, 20 or 50 μM) and/or vehicle was incubated with 3.5 μg enzyme and 1 μM cGMP containing 0.01 μM [^3H]cGMP in Tris buffer pH 7.5 for 20 minutes at 30° C. Since enzyme activity may change from lot to lot, the concentration used was adjusted if required.
The reaction was terminated by boiling the reaction mixture for 2 minutes. The obtained GMP was then converted to guanosine by addition of 10 mg/ml snake venom nucleotidase and further incubation at 30° C. for 10 minutes. Unhydrolyzed cGMP was bound to AG1-X2 resin, and remaining [^3H]Guanosine in the aqueous phase was quantitated by scintillation counting.

| SMILES | Emax [1] [%] | inhibition at 5 µM (D4.4 receptor) [%] | D4/D2 Selectivity [2] | IC50 [3] [µM] | inhibition at 50 µM ([3]; 50 mcM compound, 1 μM cGMP) [%] | PDE5 IC50, 10^−6 M [3] | PDE5 % inhibition at 50 mcM ([3]; 50 mcM compound, 1 μM cGMP) | exhibit both PDE5 inhibition and D4 agonist activity (dual activity) ([3]; referring to Table 2 (PDE5 and D4 assays)) |
| --- | --- | --- | --- | --- | --- | --- | --- | --- |
| O=c1cc(CN2CC=C(c3ccccc3)CC2)oc2ccccc12 [Compound 201, 2-[(4-phenyl-3,6-dihydropyridin-1(2H)-yl)methyl]-4H-chromen-4-one] | 75 | 72 | ~10 | – | – | – | – | – |
| O=c1cc(CN2CC=C(c3ccccc3)CC2)nc2ccccn12 [Compound 301, 2-[(4-phenyl-3,6-dihydropyridin-1(2H)-yl)methyl]-4H-pyrido[1,2-a]pyrimidin-4-one] | 69 | 59 | ~10 | – | – | – | – | – |
| O=c1[nH]c(CN2CCN(c3ccccn3)CC2)nc2nc[nH]c12 [Compound 409, 2-((4-(pyridin-2-yl)piperazin-1-yl)methyl)-1H-purin-6(7H)-one] | – | 8 | – | – | 24 | active | – | – |
| O=c1[nH]c(CN2CC=C(c3ccccc3)CC2)nc2ccccc12 [Compound 124, 2-[(4-phenyl-3,6-dihydropyridin-1(2H)-yl)methyl]quinazolin-4(3H)-one] | 57 | 73 | ~85 | – | – | – | – | – |
| O=c1[nH]c(CN2CCC=C(c3ccccn3)C2)nc2ccccc12 [Compound B-82, 2-((5,6-dihydro-3-(pyridin-2-yl)pyridin-1(2H)-yl)methyl)quinazolin-4(3H)-one] | – | 12 | – | – | – | Problems with solubility | Problems with solubility | – |
| CCOc1ccccc1N1CCN(Cc2nc3ccccc3c(=O)[nH]2)CC1 [Compound 108, 2-{[4-(2-ethoxyphenyl)piperazin-1-yl]methyl}quinazolin-4(3H)-one] | 49 | 93 | >100 | – | – | – | – | – |
| O=c1[nH]c(CN2CCN(c3ncccn3)CC2)nc2ccccc12 [Compound 123, 2-[(4-pyrimidin-2-ylpiperazin-1-yl)methyl]quinazolin-4(3H)-one] | – | 13 | – | 26 | 61 | – | – | – |
| O=c1[nH]c(CN2CCN(c3nccs3)CC2)nc2ccccc12 [Compound B-11, 2-((4-(thiazol-2-yl)piperazin-1-yl)methyl)quinazolin-4(3H)-one] | – | 18 | – | 2 | 68 | – | – | – |

More lines, main results first:

| Emax [1] [%] | inhibition at 5 µM (D4.4 receptor) [%] | D4/D2 Selectivity [2] | IC50 [3] [µM] | inhibition at 50 µM ([3]; 50 mcM compound, 1 μM cGMP) [%] | PDE5 IC50, 10^−6 M [3] | PDE5 % inhibition at 50 mcM ([3]; 50 mcM compound, 1 μM cGMP) | SMILES | exhibit both PDE5 inhibition and D4 agonist activity (dual activity) ([3]; referring to Table 2 (PDE5 and D4 assays)) |
| --- | --- | --- | --- | --- | --- | --- | --- | --- |
| 44 | 88 | >70 | – | – | – | – | COc1ccccc1N1CCN(Cc2nc3ccccc3c(=O)[nH]2)CC1 [Compound 107, 2-{[4-(2-methoxyphenyl)piperazin-1-yl]methyl}quinazolin-4(3H)-one] | – |
| 42 | 91 | ~50 | 20 | – | – | – | O=c1[nH]c(CN2CCN(c3cccc(O)c3)CC2)nc2ccccc12 [Compound 113, 2-{[4-(3-hydroxyphenyl)piperazin-1-yl]methyl}quinazolin-4(3H)-one] | both PDE5 inhibition and D4 agonist activity |
| 69 | 52 | >500 | – | – | – | – | N#Cc1ccccc1N1CCN(Cc2nc3ccccc3c(=O)[nH]2)CC1 [Compound 110, 2-{4-[(4-oxo-3,4-dihydroquinazolin-2-yl)methyl]piperazin-1-yl}benzonitrile] | – |
| 62 | 59 | >100 | – | – | – | – | O=c1[nH]c(CN2CCN(c3ccccc3F)CC2)nc2ccccc12 [Compound 104, 2-{[4-(2-fluorophenyl)piperazin-1-yl]methyl}quinazolin-4(3H)-one] | – |
| 54 | 57 | >100 | – | – | – | – | O=c1[nH]c(CN2CCN(c3ccccc3Cl)CC2)nc2ccccc12 [Compound 109, 2-{[4-(2-chlorophenyl)piperazin-1-yl]methyl}quinazolin-4(3H)-one] | – |
